Laboratory results: paper PMC4619319, “A potent anti-inflammatory peptide from the salivary glands of horsefly” (Parasites & Vectors, 2015)

Test: Circular dichroism, secondary structural components
Type: physicochemical
Conditions: CD, 25 °C, average of three scans
Experimental: CD spectra were collected on a Jasco-810 spectropolarimeter (Jasco, Tokyo, Japan) with a 1-mm path-length cell at 25 °C and 0.2-nm intervals from 190 to 260 nm. Cecropin-TY1 was dissolved in H2O, TFE/water solution, SDS/water solution and LPS/water solution at the concentration of 0.2 mg/mL. The data from three scans were averaged and smoothed using the Jasco-810 software for each spectrum. CD data were expressed as the mean residue ellipticity (θ) in deg.cm^2.dmol^−1.

[1] = LPS 50 ng/mL in water, peptide 0.2 mg/mL
[2] = LPS 100 ng/mL in water, peptide 0.2 mg/mL
[3] = LPS 200 ng/mL in water, peptide 0.2 mg/mL
[4] = LPS 400 ng/mL in water, peptide 0.2 mg/mL
[5] = SDS 5 mM in water, peptide 0.2 mg/mL
[6] = SDS 10 mM in water, peptide 0.2 mg/mL
[7] = SDS 20 mM in water, peptide 0.2 mg/mL
[8] = SDS 40 mM in water, peptide 0.2 mg/mL

Substance: GWLKKIGKKIERVGQNVRNAAISTLPIAQGAAGVAGALN-NH2 [cecropin-TY1, cecropin antimicrobial peptide from salivary glands of horsefly Tabanus yao, 39 residues, C-terminally amidated, synthesized]
- Beta (%) (H2O, peptide 0.2 mg/mL): 0.0%
- Helix (%) (H2O, peptide 0.2 mg/mL): 0.0%
- Random (%) (H2O, peptide 0.2 mg/mL): 71.1%
- Turn (%) (H2O, peptide 0.2 mg/mL): 28.9%
- Beta (%) [1]: 32.4%
- Helix (%) [1]: 0.0%
- Random (%) [1]: 55.2%
- Turn (%) [1]: 12.4%
- Beta (%) [2]: 46.6%
- Helix (%) [2]: 2.9%
- Random (%) [2]: 47.4%
- Turn (%) [2]: 3.1%
- Beta (%) [3]: 44.5%
- Helix (%) [3]: 12.7%
- Random (%) [3]: 41.1%
- Turn (%) [3]: 1.7%
- Beta (%) [4]: 47.8%
- Helix (%) [4]: 14.8%
- Random (%) [4]: 37.2%
- Turn (%) [4]: 0.1%
- Beta (%) [5]: 17.5%
- Helix (%) [5]: 45.3%
- Random (%) [5]: 37.2%
- Turn (%) [5]: 0.0%
- Beta (%) [6]: 22.7%
- Helix (%) [6]: 41.2%
- Random (%) [6]: 36.1%
- Turn (%) [6]: 0.0%
- Beta (%) [7]: 13.4%
- Helix (%) [7]: 46.6%
- Random (%) [7]: 40.0%
- Turn (%) [7]: 0.0%
- Beta (%) [8]: 7.4%
- Helix (%) [8]: 54.4%
- Random (%) [8]: 38.2%
- Turn (%) [8]: 0.0%
- Beta (%) (TFE/H2O 3:7, peptide 0.2 mg/mL): 28.7%
- Helix (%) (TFE/H2O 3:7, peptide 0.2 mg/mL): 28.4%
- Random (%) (TFE/H2O 3:7, peptide 0.2 mg/mL): 42.8%
- Turn (%) (TFE/H2O 3:7, peptide 0.2 mg/mL): 0.0%
- Beta (%) (TFE/H2O 5:5, peptide 0.2 mg/mL): 22.4%
- Helix (%) (TFE/H2O 5:5, peptide 0.2 mg/mL): 36.9%
- Random (%) (TFE/H2O 5:5, peptide 0.2 mg/mL): 40.7%
- Turn (%) (TFE/H2O 5:5, peptide 0.2 mg/mL): 0.0%
- Beta (%) (TFE/H2O 7:3, peptide 0.2 mg/mL): 22.4%
- Helix (%) (TFE/H2O 7:3, peptide 0.2 mg/mL): 37.8%
- Random (%) (TFE/H2O 7:3, peptide 0.2 mg/mL): 39.9%
- Turn (%) (TFE/H2O 7:3, peptide 0.2 mg/mL): 0.0%
- Beta (%) (TFE/H2O 9:1, peptide 0.2 mg/mL): 15.0%
- Helix (%) (TFE/H2O 9:1, peptide 0.2 mg/mL): 45.1%
- Random (%) (TFE/H2O 9:1, peptide 0.2 mg/mL): 39.9%
- Turn (%) (TFE/H2O 9:1, peptide 0.2 mg/mL): 0.0%
